Data on 25 molecules can be found in publication PMC4114533, “Synthesis, Anti-tubulin and Antiproliferative SAR of Steroidomimetic Dihydroisoquinolinones” (Chemmedchem, 2014).

The subject of data set [1] is DU-145 human prostate cancer cells. The data set is described as follows: Antiproliferative assay (WST-1, 96 h), DU-145. It counts as cell-based. To be noted: for GI50: Homo sapiens, DU-145 cells, 96 h, WST-1, mean of three determinations. On the procedure: (§1) Cell lines: DU-145 (brain metastasis carcinoma of the prostate) and MDA MB-231 (metastatic pleural effusion of breast adenocarcinoma) established human cell lines were obtained from ATCC Global Bioresource Center. Cells were maintained in a 5 % CO2 humidified atmosphere at 37 °C in RPMI-1640 medium, supplemented with 10 % fetal bovine serum, penicillin, (100 U mL^−1), and streptomycin (0.1 mg mL^−1). The effect of drugs on tubule formation was assessed using an angiogenesis kit (TCS-Cellworks).
(§2) Antiproliferative assays: DU-145 and MDA MB-231 cells were seeded into 96-well microtitre plates (5000 cells per well) and treated with compound (10^−9–10^−4 M) or with vehicle control. At 96 h post-treatment, live cell counts were determined by WST-1 cell proliferation assay (Roche, Penzberg, Germany), as per the manufacturer’s instructions. Viability results were expressed as a percentage of mean control values resulting in the calculation of the 50 % growth inhibition (GI50). All experiments were performed in triplicate.

The subject of data set [2] is MDA MB-231 human breast cancer cells. The data set is described as follows: Antiproliferative assay (WST-1, 96 h), MDA MB-231. The data set is classed as cell-based. Particulars: MDA MB-231 cells, WST-1, mean of three determinations. On the procedure: as §1, §2
Data set [3] has as its system Bovine brain tubulin. Further details: method as in PMID 20225862. To be noted: data taken from the literature ref 3; read-out: TP IC50 (tubulin polymerisation); cited from earlier work.
Data set [4] deals with T1, Bovine brain tubulin (Bos taurus, UniProt P81947+Q6B856).
T1 construct: Bovine brain tubulin, prepared as described previously,[16] was used in studies presented here; from tissue; host or cells: bovine brain
Further details: method as in PMID 20225862. Particulars: data taken from the literature ref 3; cited from earlier work.

Data set [5] concerns the target T1, Bovine brain tubulin. The data set is described as follows: Inhibition of [3H]colchicine binding to tubulin. To be noted: mean ±SD. On the procedure:
(§3) Tubulin assays: Bovine brain tubulin, prepared as described previously,[16] was used in studies presented here. Assembly IC50 values were determined as described in detail elsewhere.[17] Briefly, 1.0 mg mL^−1 (10 μM) tubulin was pre-incubated without GTP with varying compound concentrations for 15 min at 30 °C. Reaction mixtures were placed on ice, and GTP (final concentration, 0.4 mM) was added. The reaction mixtures were transferred to cuvettes, held at 0 °C in a recording spectrophotometer. Baselines were established at 0 °C, and increase in turbidity was followed for 20 min following a rapid (<30 s) jump to 30 °C. Compound concentrations required to decrease the turbidity increase by 50 % were determined. The method for measuring inhibition of the binding of [^3H]colchicine to tubulin was described in detail previously.[18] Reaction mixtures contained 0.1 mg mL^−1 (1.0 μM) tubulin, 5.0 μM [^3H]colchicine, and potential inhibitor at 5.0 μM. […] A minimum of two experiments were performed with each compound.

For data set [6], the system named is Bovine brain tubulin. The data set is described as follows: Tubulin polymerisation (assembly) assay. It counts as biochemical. To be noted: 10 μM tubulin, mean ±SD of at least two determinations; read-out: TP IC50 (tubulin polymerisation). On the procedure: as §3

Where two headings read alike, the source gives them in different places. Bounds are passed on as bounds.

T1 sequence (Q6B856 whole entry): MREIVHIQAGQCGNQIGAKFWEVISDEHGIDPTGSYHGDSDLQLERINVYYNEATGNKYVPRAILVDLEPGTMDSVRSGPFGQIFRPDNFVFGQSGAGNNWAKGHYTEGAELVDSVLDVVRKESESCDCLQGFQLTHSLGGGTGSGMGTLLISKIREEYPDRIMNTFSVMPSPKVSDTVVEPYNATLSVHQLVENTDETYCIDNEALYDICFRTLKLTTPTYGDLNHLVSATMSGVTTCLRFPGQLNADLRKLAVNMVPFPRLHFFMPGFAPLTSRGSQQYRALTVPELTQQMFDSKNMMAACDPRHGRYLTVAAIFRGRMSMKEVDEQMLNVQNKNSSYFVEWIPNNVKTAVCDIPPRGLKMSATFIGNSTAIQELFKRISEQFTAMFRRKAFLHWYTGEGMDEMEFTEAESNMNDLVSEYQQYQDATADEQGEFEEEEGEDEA
T1 sequence (P81947 whole entry): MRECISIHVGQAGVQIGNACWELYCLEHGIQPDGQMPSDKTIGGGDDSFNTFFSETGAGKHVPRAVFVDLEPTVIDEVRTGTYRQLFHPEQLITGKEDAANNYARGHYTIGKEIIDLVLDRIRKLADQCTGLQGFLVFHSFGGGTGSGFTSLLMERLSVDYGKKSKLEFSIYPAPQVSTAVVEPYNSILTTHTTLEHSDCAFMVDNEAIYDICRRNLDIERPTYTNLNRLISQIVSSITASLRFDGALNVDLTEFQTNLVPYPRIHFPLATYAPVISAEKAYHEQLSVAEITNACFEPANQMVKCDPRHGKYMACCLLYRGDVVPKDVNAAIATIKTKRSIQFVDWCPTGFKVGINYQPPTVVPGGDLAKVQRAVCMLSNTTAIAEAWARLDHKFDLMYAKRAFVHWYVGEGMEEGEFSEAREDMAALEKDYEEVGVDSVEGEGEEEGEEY

As for `COc1ccc(CN2CCc3cc(O)c(OC)cc3C2=O)cc1` [8 c, 6-Hydroxy-7-methoxy-2-(4-methoxybenzyl)-3,4-dihydroisoquinolin-1(2H)-one], the melting point was 171 to 172 °C. Further, the GI50 in data set [1] is more than 100 µM.

In the case of `COc1cc2c(cc1OS(N)(=O)=O)CCN(S(=O)(=O)c1cccc(Cl)c1)C2=O` [12 d, 2-((3-Chlorophenyl)sulfonyl)-7-methoxy-6-(sulfamoyloxy)-3,4-dihydroisoquinolin-1(2H)-one], the melting point fell in the range of 170 to 173 °C. For the same molecule, the GI50 in data set [1] was more than 100 µM. Further, the GI50 in data set [2] is more than 100 µM.

Take `COc1cccc(S(=O)(=O)N2CCc3cc(OS(N)(=O)=O)c(OC)cc3C2=O)c1` [12 b, 7-Methoxy-2-((3-methoxyphenyl)sulfonyl)-6-(sulfamoyloxy)-3,4-dihydroisoquinolin-1(2H)-one]: the melting point was in the range of 164 to 166 °C. This molecule also showed a GI50 in data set [1] of more than 100 µM. The molecule also displayed a GI50 in data set [2] of more than 100 µM.

Take `COc1cc2c(cc1OS(N)(=O)=O)CC[C@@H]1[C@@H]2CC[C@]2(C)[C@@H](OS(N)(=O)=O)CC[C@@H]12` [1 a]: in data set [3], the IC50 was 2.2 ± 0.3 µM. In addition, in data set [4], the “CB [% inhib.] 5 μM inhibitor” value was 28±3%.

`COc1cccc(CN2CCc3cc(O)c(OC)cc3C2=O)c1` [8 b, 6-Hydroxy-7-methoxy-2-(3-methoxybenzyl)-3,4-dihydroisoquinolin-1(2H)-one] gave a melting point of 181 to 182 °C. This molecule also returned a GI50 in data set [1] of more than 100 µM.

As for `COc1ccc(C(=O)N2CCc3cc(OS(N)(=O)=O)c(OC)cc3C2=O)cc1` [17 d, 2-(4-Methoxybenzoyl)-7-methoxy-6-sulfamoyloxy-3,4-dihydroisoquinolin-1(2H)-one], the melting point lay within 171 to 172 °C. Also, the GI50 in data set [1] was more than 100 µM. In data set [1] (in vitro antiproliferative activity, result in words), the “antiproliferative activity (in words)” value is “inactive”.

On to `CCc1cc2c(cc1OS(N)(=O)=O)CC[C@@H]1[C@@H]2CC[C@]2(C)[C@@H](OS(N)(=O)=O)CC[C@@H]12` [1 c], for which, in data set [3], the IC50 is 1.3 ± 0.01 µM. Moreover, the “CB [% inhib.] 5 μM inhibitor” value in data set [4] is listed as 45±4%.

`COc1ccc(S(=O)(=O)N2CCc3cc(O)c(OC)cc3C2=O)cc1` [11 c, 6-Hydroxy-7-methoxy-2-((4-methoxyphenyl)sulfonyl)-3,4-dihydroisoquinolin-1(2H)-one] showed a melting point of 202 to 204 °C. For the same molecule, in data set [1], the 50% growth inhibitory concentration (GI50) is more than 100 µM. Moreover, the GI50 in data set [2] is more than 100 µM.

Consider `COc1cc2c(cc1O)CCN(C(=O)c1ccc(OC)c(OC)c1)C2=O` [16 e, 6-Hydroxy-2-(3,4-dimethoxybenzoyl)-7-methoxy-3,4-dihydroisoquinolin-1(2H)-one], for which the melting point was in the range of 199 to 200 °C. This molecule had a GI50 in data set [1] of 2.39 µM. In data set [2], this molecule displayed a GI50 of 1.6 µM.

`COC(=O)c1ccccc1S(=O)(=O)N1CCc2cc(O)c(OC)cc2C1=O` [11 e, Methyl 2-((6-hydroxy-7-methoxy-1-oxo-3,4-dihydroisoquinolin-2(1H)-yl)sulfonyl)benzoate] gave a melting point of 236 to 239 °C. For the same molecule, the concentration for 50% growth inhibition (GI50) in data set [1] was more than 100 µM. In addition, in data set [2], the GI50 is more than 100 µM.

The molecule `COc1cc2c(cc1O)CCN(S(=O)(=O)c1cccc(Cl)c1)C2=O` [11 d, 6-Hydroxy-7-methoxy-2-((3-chlorophenyl)sulfonyl)-3,4-dihydroisoquinolin-1(2H)-one] came in with a melting point of 178 to 181 °C. Besides, in data set [1], the GI50 is more than 100 µM. For the same molecule, in data set [2], the GI50 is more than 100 µM.

For `COc1cc2c(cc1OS(N)(=O)=O)CC[C@@H]1[C@@H]2CC[C@]2(C)[C@@H](CC#N)CC[C@@H]12` [1 b], the IC50 in data set [3] was 1.3 ± 0.08 µM. Also, in data set [4], the “CB [% inhib.] 5 μM inhibitor” value is listed as 78±0.9%.

Molecule `COc1cc2c(cc1OS(N)(=O)=O)CCN(S(=O)(=O)c1ccccc1OC)C2=O` [12 a, 7-Methoxy-2-((2-methoxyphenyl)sulfonyl)-6-(sulfamoyloxy)-3,4-dihydroisoquinolin-1(2H)-one] returned a melting point of 195 to 197 °C. In addition, the 50% growth inhibitory concentration (GI50) in data set [1] is more than 100 µM. The GI50 in data set [2] is more than 100 µM.

Turning to `COc1cccc(S(=O)(=O)N2CCc3cc(O)c(OC)cc3C2=O)c1` [11 b, 6-Hydroxy-7-methoxy-2-((3-methoxyphenyl)sulfonyl)-3,4-dihydroisoquinolin-1(2H)-one], the GI50 in data set [1] and in data set [2] was more than 100 µM throughout.

For the molecule `COc1cccc(C(=O)N2CCc3cc(OS(N)(=O)=O)c(OC)cc3C2=O)c1` [17 b, 2-(3-Methoxybenzoyl)-7-methoxy-6-sulfamoyloxy-3,4-dihydroisoquinolin-1(2H)-one], the GI50 is 5.3 µM in data set [1] and 3.5 µM in data set [2].

The molecule `COc1cc2c(cc1OS(N)(=O)=O)CCN(C(=O)c1cccc(C#N)c1)C2=O` [17 c, 2-(3-Cyanobenzoyl)-7-methoxy-6-sulfamoyloxy-3,4-dihydroisoquinolin-1(2H)-one] displayed a melting point of 171 to 172 °C. Besides, the GI50 in data set [1] came out at 25 µM. For the same molecule, the GI50 in data set [2] was more than 100 µM.

For the molecule `COc1cc2c(cc1OS(N)(=O)=O)CCN(C(=O)c1ccccc1OC)C2=O` [17 a, 2-(2-Methoxybenzoyl)-7-methoxy-6-sulfamoyloxy-3,4-dihydroisoquinolin-1(2H)-one], the results for the GI50 in data set [1] and in data set [2] were 9.1 µM and 7.1 µM, respectively.

Regarding `COc1cc2c(cc1OCc1ccccc1)CCN(C(=O)c1cccc(C#N)c1)C2=O` [15 c, 6-Benzyloxy-2-(3-cyanobenzoyl)-7-methoxy-3,4-dihydroisoquinolin-1(2H)-one], the GI50 in data set [1] and in data set [2] was more than 100 µM in each case.

Regarding `COc1ccc(S(=O)(=O)N2CCc3cc(OS(N)(=O)=O)c(OC)cc3C2=O)cc1` [12 c, 7-Methoxy-2-((4-methoxyphenyl)sulfonyl)-6-(sulfamoyloxy)-3,4-dihydroisoquinolin-1(2H)-one], the GI50 in data set [1] and in data set [2] was more than 100 µM in each case.

For `COc1cc2c(cc1OS(N)(=O)=O)CCN(C(=O)c1cc(OC)c(OC)c(OC)c1)C2=O` [17 g, 7-Methoxy-2-(3,4,5-trimethoxybenzoyl)-6-sulfamoyloxy-3,4-dihydroisoquinolin-1(2H)-one], the inhibition at 5 µM in data set [5] (5 μM inhibitor, 1.0 μM tubulin, 5.0 μM [3H]colchicine, read-out: CB [% inhib.] 5 μM inhibitor) is 85 ± 2%. Also, the results for the GI50 in data set [1] and in data set [2] were 0.166 µM and 0.275 µM, respectively. In data set [6], the IC50 came to 1.2 ± 0.03 µM.

For `COc1ccc(/C=C\c2cc(OC)c(OC)c(OC)c2)cc1O` [CA-4, combretastatin A-4, reference compound], the inhibition at 1 µM in data set [5] (1 μM inhibitor, read-out: CB [% inhib.] 1 μM inhibitor) stood at 90 ± 0.2%.

`COc1cc2c(cc1O)CCN(S(=O)(=O)c1ccccc1OC)C2=O` [11 a, 6-Hydroxy-7-methoxy-2-((2-methoxyphenyl)sulfonyl)-3,4-dihydroisoquinolin-1(2H)-one]: the GI50 in data set [1] was more than 100 µM; in data set [2] it was 13.4 µM.

For `COc1cccc(CN2CCc3cc(OS(N)(=O)=O)c(OC)cc3C2=O)c1` [9 b, 7-Methoxy-2-(3-methoxybenzyl)-6-sulfamoyloxy-3,4-dihydroisoquinolin-1(2H)-one], the melting point was 139 to 140 °C. The molecule further showed a GI50 in data set [1] of more than 100 µM.

As to `COc1cc2c(cc1OCc1ccccc1)CCN(C(=O)c1cc(OC)c(OC)c(OC)c1)C2` [14 g, 6-Benzyloxy-7-methoxy-2-(3,4,5-trimethoxybenzoyl)-1,2,3,4-tetrahydroisoquinoline], the values for the GI50 in data set [1] and in data set [2] were 62.7 µM and 18.9 µM, respectively.

Turning to `COC(=O)c1ccccc1S(=O)(=O)N1CCc2cc(OS(N)(=O)=O)c(OC)cc2C1=O` [12 e, Methyl 2-((7-methoxy-1-oxo-6-(sulfamoyloxy)-3,4-dihydroisoquinolin-2(1H)-yl)sulfonyl)benzoate], the melting point fell in the range of 181 to 186 °C. The molecule also yielded a GI50 in data set [1] of more than 100 µM. In data set [2], the GI50 is 13 µM.
